Literature values, collected in US20020146829A1, “Neutral and anionic colloidal particles for gene delivery” (Aventis Pharmaceuticals Products Inc., priority 2000, published 2002).

Target: T1, folate receptor on M109 cells (Mus musculus, UniProt P35846)
T1 construct: endogenous in cells; host or cells: M109 cells
T1 sequence (P35846 25-232): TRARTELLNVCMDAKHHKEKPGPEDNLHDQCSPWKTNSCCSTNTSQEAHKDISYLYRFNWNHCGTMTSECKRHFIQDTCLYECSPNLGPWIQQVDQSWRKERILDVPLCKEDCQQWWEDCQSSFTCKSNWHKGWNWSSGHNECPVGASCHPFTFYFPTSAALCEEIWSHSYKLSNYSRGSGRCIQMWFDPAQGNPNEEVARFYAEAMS

binding to folate receptor: specifically bind
Substance: distearyl-PEG400-Folate [RPR258018]
